Experiments:
[1] = target: ACE (Homo sapiens, UniProt P12821); experiment: In vitro ACE inhibiting assay; assay type: biochemical; conditions: for ACE inhibiting activity (FIG. 11): purified in example 5, various concentrations
Source text: Wherein, the data of TC-1 to TC-4 are obtained from the whole plant extracts of Vitis thunbergii var. taiwaniana cultured by various plant growth substrates, respectively.
Moreover, the hot water extract of the Vitis thunbergii var. taiwaniana tea powder obtained in example 2 is used to perform the same ACE inhibiting assay, as shown in FIG. 6. […] Method A: culturing the tissue culture plantlet for 30 days, replacing the old culture medium with new culture medium, and then culturing the plantlet for another 60 days; in which the plantlet were cultured for 90 days. Method B: culturing the tissue culture plantlet for 30 days, directly adding the new culture medium onto the old culture medium, and then culturing for another 60 days; in which the plantlet were cultured for 90 days.
Various concentration of (+)-vitisin A and ampelopsin C purified in example 5 were used to perform ACE inhibiting activity assay.

[2] = tested on: spontaneous hypertensive rats (SHRs); experiment: 24-hour blood pressure test of SHRs after single oral administration; assay type: in vivo, rat; conditions: single oral administration 10 mg/kg, versus control fed distilled water
Procedure: The Vitis thunbergii var. taiwaniana extracts of the present invention were used in the in vivo blood pressure regulation assay. The present embodiment was performed on 24 heads of five- to six-week old male spontaneous hypertensive rats (SHRs). The rats were housed for 7 weeks and then used for the assay while they were about twelve- to thirteen-week old. The SHRs were randomly divided into experimental group (12 heads of SHRs) and control group (12 heads of SHRs). The rats of the experimental group were fed with the Vitis thunbergii var. taiwaniana extract obtained in example 1, and the rats of the control group were fed with distilled water for instead. After oral administration by feeding tube, the blood pressure of all SHRs was measured for a certain time interval.
Similarly, the hot water extract of the roots and stems of the Vitis thunbergii var. taiwaniana cultivated in field for 5 to 6 months, which was transferred from tissue culture plantlets, was used in a 24-hour blood pressure test, as shown in FIG. 7 (the rats of the control group were fed with distilled water).
Moreover, the blood pressure of the SHRs fed with (+)-vitisin A purified in example 5 was measured during 24 hours after single oral administration.

Chain of ACE (P12821 30-1306, species assumed): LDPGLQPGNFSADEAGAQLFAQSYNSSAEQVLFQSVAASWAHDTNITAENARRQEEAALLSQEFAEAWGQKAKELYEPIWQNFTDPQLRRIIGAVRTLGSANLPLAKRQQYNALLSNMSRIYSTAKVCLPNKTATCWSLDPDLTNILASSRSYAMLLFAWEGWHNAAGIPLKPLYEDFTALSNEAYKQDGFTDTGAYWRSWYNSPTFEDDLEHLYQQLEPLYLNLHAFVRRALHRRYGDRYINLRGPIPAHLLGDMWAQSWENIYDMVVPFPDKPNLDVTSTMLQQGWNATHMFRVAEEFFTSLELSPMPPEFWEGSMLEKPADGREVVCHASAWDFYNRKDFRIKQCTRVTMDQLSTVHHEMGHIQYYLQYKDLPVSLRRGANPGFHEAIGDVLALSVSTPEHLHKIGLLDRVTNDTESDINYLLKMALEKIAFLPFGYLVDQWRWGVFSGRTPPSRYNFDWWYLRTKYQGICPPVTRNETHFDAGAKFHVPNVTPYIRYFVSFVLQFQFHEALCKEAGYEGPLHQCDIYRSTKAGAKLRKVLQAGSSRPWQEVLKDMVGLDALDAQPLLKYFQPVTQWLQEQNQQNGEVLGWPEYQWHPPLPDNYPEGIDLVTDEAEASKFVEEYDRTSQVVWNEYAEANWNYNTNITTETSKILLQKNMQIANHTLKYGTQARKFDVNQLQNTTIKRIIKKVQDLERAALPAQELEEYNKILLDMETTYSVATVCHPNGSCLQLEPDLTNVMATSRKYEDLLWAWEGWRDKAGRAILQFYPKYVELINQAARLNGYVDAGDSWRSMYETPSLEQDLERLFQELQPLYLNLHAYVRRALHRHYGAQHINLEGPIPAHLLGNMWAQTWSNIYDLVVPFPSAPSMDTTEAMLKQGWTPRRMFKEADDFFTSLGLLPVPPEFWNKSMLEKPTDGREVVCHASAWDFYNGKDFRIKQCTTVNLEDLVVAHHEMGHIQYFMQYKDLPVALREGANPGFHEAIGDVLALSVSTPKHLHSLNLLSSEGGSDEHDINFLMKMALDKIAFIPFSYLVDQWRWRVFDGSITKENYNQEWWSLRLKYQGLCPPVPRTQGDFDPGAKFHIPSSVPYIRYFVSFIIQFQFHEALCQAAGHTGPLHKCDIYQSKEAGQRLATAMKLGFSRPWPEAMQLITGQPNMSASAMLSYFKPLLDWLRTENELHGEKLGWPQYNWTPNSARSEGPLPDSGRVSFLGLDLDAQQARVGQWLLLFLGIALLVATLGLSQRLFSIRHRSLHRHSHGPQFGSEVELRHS

IC50 ([1]; purified in example 5, FIG. 11) [µM] | SMILES | ACE inhibiting activity (FIG. 11) [1] | blood pressure of SHRs in the period of 24 hours (FIG. 12) [2]
18.1 | Oc1ccc([C@H]2c3c(O)cc4c5c3[C@@H]([C@H](c3ccc(O)cc3)c3c(O)cc(O)cc3[C@H]5[C@H](c3ccc(O)cc3)O4)[C@@H]2c2cc(O)cc(O)c2)cc1 [ampelopsin C] | obviously have ACE inhibiting activity | 
 | Oc1ccc([C@H]2c3c(O)cc(O)cc3[C@H]3c4c(cc(O)cc4[C@@H]2c2cc(/C=C/c4cc(O)cc5c4[C@H](c4cc(O)cc(O)c4)[C@@H](c4ccc(O)cc4)O5)ccc2O)O[C@@H]3c2ccc(O)cc2)cc1 [(+)-vitisin A] | obviously have ACE inhibiting activity | decreases significantly
